Laboratory results taken from ChEMBL document CHEMBL1132634, “Bound structures of novel P3-P1' beta-strand mimetic inhibitors of thrombin” (J Med Chem, 1999).

Tests used:
Prothrombin [1] = molecular target: T1, Prothrombin (Homo sapiens, UniProt P00734); test: Binding affinity towards thrombin was determined
Prothrombin [2] = molecular target: T1, Prothrombin
Description: Binding rate constant towards thrombin was determined

N=C(N)NCCC[C@H](NC(=O)[C@@H]1CC[C@@H]2CC[C@@](N)(Cc3ccccc3)C(=O)N21)C(=O)c1nc2ccccc2s1
Ki (Prothrombin [1]): 650 pM

NCCCC[C@H](NC(=O)[C@@H]1CCN2CC[C@@](N)(Cc3ccccc3)C(=O)N12)C(=O)C(=O)NC1CCCCC1
k on (Prothrombin [2]): 1e+06 M⁻¹ s⁻¹

N=C(N)NCCC[C@H](NC(=O)[C@@H]1CCN2CC[C@@](N)(Cc3ccccc3)C(=O)N12)C(=O)C(=O)NCCc1ccccc1
k on (Prothrombin [2]): 640000 M⁻¹ s⁻¹
